Test results reported in patent publication EP0974354A1, “Artemisinin derivatives” (The Hong Kong University of Science & Technology, priority 1998, dated 2000).
In brackets after ≈: the same amount, converted by molar mass. Several values for one entry are separate records, joined by “and”; a condition that tells them apart may be missing. Equal entries are not always repeated. Where two headings read alike, the source gives them in different places.

Experiments:
[1] = system: Plasmodium Falciparum W2 Strain (Chloroquine resistant); assay: In vitro screening against Plasmodium falciparum, radiolabelled hypoxanthine incorporation, W2 strain; assay type: cell-based; details: for IC50 / IC90: Plasmodium falciparum; for IC50: read-out: In vitro activity: IC50, W2 Strain (Chloroquine resistant); for IC90: read-out: In vitro activity: IC90, W2 Strain (Chloroquine resistant)
Description: (§1) Two parasite strains - W2 resistant to chloroquine, and D6 sensitive to chloroquine but resistant to mefloquine were used.
(§2) The assay relies on incorporation of radiolabelled hypoxanthine by the parasite and inhibition of incorporation is attributed to activity of known or candidate antimalarial drugs. For each assay, proven antimalarials such as chloroquine, mefloquine, quinine, artemisinin and pyrimethamine were used as controls. The incubation period was 66 hours, and the starting parasitemia was 0.2% with 1% hematocrit. The medium was an RPMI-1640 culture with no folate or p-aminobenzoic acid. […] If a compound was submitted with no prior knowledge of activity, it was dissolved directly in dimethyl sulphoxide (DMSO), and diluted 400 fold with complete culture medium. […] These dilutions were performed automatically by a Biomek 1000 Liquid Handling System in 96-well microtiter plates. The diluted drugs were then transferred to test plates, 200 µl of parasitized erythrocytes were added, and incubated at 37°C in a controlled environment of 5% CO2, 5% O2 and 90% N2. After 42 hours, 25 µl of ^3H-hypoxanthine was added, and the plates incubated for an additional 24 hours. After 66 hours, the plates were frozen at -70°C to lyse the red cells, and then thawed and harvested onto glass fiber filter mats in a 96-well harvester. The filter mats were then counted in a scintillation counter.
(§3) A prescreen format can be used wherein a 3-dilution assay may be used to determine activity at high medium or low concentrations. The concentrations were selected as 50,000, 500 and 50 ng ml^-1. These were performed in duplicate on a 96-well format plate with 14 test compounds and one known (standard) compound per plate. The system was automated with a Biomek diluter for mixing and diluting the drugs, and adding drugs and parasites to a test plate.
(§4) In the prescreen format, if the […] […] If the AF has a ">", then the IC value is greater than the prescreen dilution value; thus "AF>250" means that the IC value is greater than 250 ng ml^-1 and no further screening is carried out. In such cases, values of 0.00 are entered for IC values.

[2] = system: Plasmodium Falciparum D6 Strain (Chloroquine sensitive); assay: In vitro screening against Plasmodium falciparum, radiolabelled hypoxanthine incorporation, D6 strain; assay type: cell-based; details: for IC50 / IC90: Plasmodium falciparum
Description: as §1, §2, §3, §4

[3] = system: parasite of the genus Plasmodium; assay: Antimalarial activity, general statement in the description, test not specified; details: qualitative statement
[4] = W2 Strain (Chloroquine resistant), 66 hours incubation, Albumax medium
[5] = D6 Strain (Chloroquine sensitive), 66 hours incubation, Albumax medium
[6] = W2, 66 h, 66 hours incubation, Albumax medium
[7] = D6, 66 h, D6 Strain (Chloroquine sensitive), 66 hours incubation, Albumax medium, read-out: In vitro activity: IC50
[8] = D6, 66 h, D6 Strain (Chloroquine sensitive), 66 hours incubation, Albumax medium, read-out: In vitro activity: IC90

SMILES	In vitro activity: IC50 [2, 5] [ng/mL]	In vitro activity: IC90 [2, 5] [ng/mL]	IC50 [1, 6] [ng/mL]	IC90 [1, 6] [ng/mL]	In vitro activity: IC50 ([1]; W2, 66 h) [ng/mL]	In vitro activity: IC90 ([1]; W2, 66 h) [ng/mL]	IC50 [2, 7] [ng/mL]	IC90 [2, 8] [ng/mL]	In vitro activity: (IC10) [2, 5]	In vitro activity: (IC10) ([1]; W2, 66 h) [ng/mL]	other results
CC1CCC2C(C)C(OCc3ccc4ccccc4c3)OC3OC4(C)CCC1C32OO4 (single isomer, unassigned) [3(α-isomer), 10α-[(2'-naphthylmethyl)oxy]dihydroartemisinin]	1.24	1.67	–	–	–	–	–	–	0.93 ng/mL	–	In vitro activity: (IC10) [1, 4]: 0.62 ng/mL; In vitro activity: IC50 [1, 4]: 1.54 ng/mL; In vitro activity: IC90 [1, 4]: 3.83 ng/mL
C[C@H]1[C@@H](OCC(F)(F)F)O[C@@H]2O[C@@]3(C)CC[C@H]4[C@H](C)CC[C@@H]1[C@@]24OO3 [Example 1, 10β-[(2',2',2'-trifluoroethyl)oxy]dihydroartemisinin]	–	–	0.26 (≈ 0.71 nM)	–	–	–	–	–	0.57 ng/mL	–	In vitro activity: (IC10) [1, 4]: 0.19 ng/mL and 0.20 ng/mL; In vitro activity: IC50 [1, 4]: 0.51 ng/mL; IC50 ([2]; D6, 66 h, read-out: In vitro activity: IC50): 0.77 ng/mL (≈ 2.1 nM); IC90 ([2]; D6, 66 h, read-out: In vitro activity: IC90): 1.04 ng/mL (≈ 2.84 nM)
CC1CCC2C(C)C(Oc3ccnc4ccccc34)OC3OC4(C)CCC1C32OO4 (stereo not drawn) [10β-(4'-Quinolinoxy)dihydroartemisinin]	–	–	–	–	–	–	–	–	–	–	antimalarial activity [3]: particularly interesting antimalarial activity
C[C@H]1[C@@H](OCc2cccc(F)c2)O[C@@H]2O[C@@]3(C)CC[C@H]4[C@H](C)CC[C@@H]1[C@@]24OO3 [Example 9]	–	–	0.45 (≈ 1.15 nM)	0.59 (≈ 1.5 nM)	–	–	0.36 (≈ 0.917 nM)	1.7 (≈ 4.33 nM)	0.08 ng/mL	0.35	–
C[C@H]1[C@@H](Oc2ccnc3cc(C(F)(F)F)ccc23)O[C@@H]2O[C@@]3(C)CC[C@H]4[C@H](C)CC[C@@H]1[C@@]24OO3 [Example 2, 10β-[4'-(7'-trifluoromethylquinolinoxy)]dihydroartemisinin]	–	–	0.67 (≈ 1.4 nM)	0.81 (≈ 1.69 nM)	–	–	0.71 (≈ 1.48 nM)	0.93 (≈ 1.94 nM)	0.55 ng/mL	0.56	antimalarial activity [3]: particularly interesting antimalarial activity
C[C@H]1[C@@H](OCc2cccc3c2ccc2ccccc23)O[C@@H]2O[C@@]3(C)CC[C@H]4[C@H](C)CC[C@@H]1[C@@]24OO3 [Example 13]	–	–	0.62 (≈ 1.31 nM)	0.79 (≈ 1.66 nM)	–	–	0.58 (≈ 1.22 nM)	0.77 (≈ 1.62 nM)	0.44 ng/mL	0.50	–
C[C@H]1[C@@H](OCc2ccccc2F)O[C@@H]2O[C@@]3(C)CC[C@H]4[C@H](C)CC[C@@H]1[C@@]24OO3 [Example 8]	–	–	0.83 (≈ 2.11 nM)	1.08 (≈ 2.75 nM)	–	–	0.75 (≈ 1.91 nM)	1.22 (≈ 3.11 nM)	0.46 ng/mL	0.63	–

Now from value to molecule, other results behind:

In vitro activity: IC50 [2, 5] [ng/mL]	In vitro activity: IC90 [2, 5] [ng/mL]	IC50 [1, 6] [ng/mL]	IC90 [1, 6] [ng/mL]	In vitro activity: IC50 ([1]; W2, 66 h) [ng/mL]	In vitro activity: IC90 ([1]; W2, 66 h) [ng/mL]	IC50 [2, 7] [ng/mL]	IC90 [2, 8] [ng/mL]	SMILES	In vitro activity: (IC10) [2, 5]	In vitro activity: (IC10) ([1]; W2, 66 h) [ng/mL]	other results
1.47	1.81	0.67 (≈ 1.58 nM)	1.01 (≈ 2.38 nM)	0.70	1.17	1.42 (≈ 3.34 nM)	1.97 (≈ 4.64 nM)	C[C@H]1[C@H](OCc2cccc3ccccc23)O[C@@H]2O[C@@]3(C)CC[C@H]4[C@H](C)CC[C@@H]1[C@@]24OO3 [11(α-isomer)]	1.03 ng/mL and 1.20 ng/mL	–	–
–	–	0.25 (≈ 0.637 nM)	0.86 (≈ 2.19 nM)	–	–	0.34 (≈ 0.866 nM)	0.58 (≈ 1.48 nM)	C[C@H]1[C@@H](OCc2ccc(F)cc2)O[C@@H]2O[C@@]3(C)CC[C@H]4[C@H](C)CC[C@@H]1[C@@]24OO3 [Example 10]	0.20 ng/mL	0.07	–
0.64	0.80	0.64 (≈ 1.51 nM)	0.78 (≈ 1.84 nM)	0.63	1.25	0.4 (≈ 0.942 nM)	0.53 (≈ 1.25 nM)	C[C@H]1[C@@H](OCc2ccc3ccccc3c2)O[C@@H]2O[C@@]3(C)CC[C@H]4[C@H](C)CC[C@@H]1[C@@]24OO3 [3(β-isomer), 10β-[(2'-naphthylmethyl)oxy]dihydroartemisinin]	0.31 ng/mL and 0.51 ng/mL	–	–
0.61	0.91	1.24 (≈ 3.01 nM)	6.45 (≈ 15.7 nM)	2.03	9.11	0.43 (≈ 1.04 nM)	0.8 (≈ 1.94 nM)	C[C@H]1[C@@H](Oc2ccnc3ccccc23)O[C@@H]2O[C@@]3(C)CC[C@H]4[C@H](C)CC[C@@H]1[C@@]24OO3 [Example 15]	0.23 ng/mL and 0.41 ng/mL	–	–
–	–	17.2 (≈ 34.5 nM)	24.9 (≈ 49.9 nM)	–	–	37.9 (≈ 76.1 nM)	49.5 (≈ 99.2 nM)	C[C@H]1[C@@H](OCc2ccc3ccc4cccc5ccc2c3c45)O[C@@H]2O[C@@]3(C)CC[C@H]4[C@H](C)CC[C@@H]1[C@@]24OO3 [Example 14]	29.09 ng/mL	11.90	–
–	–	132 (≈ 277 nM)	173 (≈ 365 nM)	187.76	301.34	–	–	C[C@H]1[C@@H](OCc2c3ccccc3cc3ccccc23)O[C@@H]2O[C@@]3(C)CC[C@H]4[C@H](C)CC[C@@H]1[C@@]24OO3 [Example 12]	–	–	In vitro activity: (IC10) ([2]; D6, 66 h): 102.79 ng/mL; IC50 ([2]; D6, 66 h, read-out: In vitro activity: IC50, D6 Strain (Chloroquine sensitive), 66 hours incubation, Albumax medium): 136 ng/mL (≈ 286 nM); IC90 ([2]; D6, 66 h, read-out: In vitro activity: IC90, D6 Strain (Chloroquine sensitive), 66 hours incubation, Albumax medium): 179 ng/mL (≈ 378 nM)
